The values below come from patent US8592421B2, “Cyclic bioisosters of purine system derivatives and a pharmaceutical composition based thereon” (priority 2003, dated 2013).

The experiment deals with plasma hemostasis. The experiment is described as follows: Thrombin time after intravenous administration. It is filed as in vivo, rabbit. How it is done: The investigations were performed on 72 rabbits of the “Chinchilla” breed with a mass of 2.5±0.3 kg, who were administered which solutions of compounds 2, 15, 21, 37 in doses of 15, 30 and 60 mg/kg intravenously. The experiments included the thrombin-test (series No. 7300) and the coagulability-test (series No. 5000) purchased from the scientific-and-production association (SPA) “Renam”, thromboplastin (series No. 240600) and calcium chloride purchased from the SPA “MedioLab”
The static parameters of the blood and plasma coagulation (partial activated thromboplastin time, thrombin time, maximum coagulation activity (test for auto coagulation) were determined using the Behnk Electronic coagulometer (Germany). The operating principle of this instrument is based on the fact that the formed blood clot breaks the contacts of the pulse counter in the flask-pin circuit, said pin permanently oscillating in a vertical plane. The moment of formation of the clot is registered by stopping the stop watch hand.
The measurements were effected at a constant temperature of 37° C. maintained by a temperature control unit.
The “thrombin time” characterizes the rate of transformation of fibrinogen into fibrin. It was determined by measuring the coagulation time of plasma deprived of thrombocytes under the effect of thrombin standardized by the control plasma.
0.2 ml of a thrombin solution was added to 0.2 ml of the test blood plasma of experimental animals, from whom the blood was taken 15, 30, 60 and 120 minutes after the intravenous administration of compounds 2, 15, 21, 37 according to the invention in doses of 15, 30, 60 mg/kg incubated for 1 minute at a temperature of 37° C. and the time of formation of clot T2 in seconds in a coagulometer of the Behnk Electronic Company (Germany).

[1] abbreviates: 15.0 mg/kg intravenously, after 15 minutes, control 15.8.
[2] abbreviates: 15.0 mg/kg intravenously, after 30 minutes, control 15.8.
[3] abbreviates: 15.0 mg/kg intravenously, after 60 minutes, control 15.8.
Setting [4] is: 15.0 mg/kg intravenously, after 120 minutes, control 15.8.
Where [5] appears, read: 30.0 mg/kg intravenously, after 15 minutes, control 14.7.
Setting [6] is: 30.0 mg/kg intravenously, after 30 minutes, control 14.7.
[7] abbreviates: 30.0 mg/kg intravenously, after 60 minutes, control 14.7.
Where [8] appears, read: 30.0 mg/kg intravenously, after 120 minutes, control 14.7.
Where [9] appears, read: 60.0 mg/kg intravenously, after 15 minutes, control 15.2.
Setting [10] is: 60.0 mg/kg intravenously, after 30 minutes, control 15.2.
[11] abbreviates: 60.0 mg/kg intravenously, after 60 minutes, control 15.2.
Setting [12] is: 60.0 mg/kg intravenously, after 120 minutes, control 15.2.

Marks after values point to notes of the source that are not given here.

`Nc1ccnc2c(=O)n([C@@H]3O[C@H](CO)[C@@H](O)[C@H]3O)[nH]c(=O)c12` [Compound 2, 4-amino-7-(β-D-ribofuranosile)pyrido[2,3-d]-6H-pyridazine-5,8-dione]: the “thrombin time, T2” value reads like this: under setting [1], 16.2* s; under setting [2], 17.0* s; under setting [3], 16.0* s; under setting [4], 15.3* s; under setting [5], 17.8* s; under setting [6], 18.4* s. Also, the “thrombin time, T2” value reads like this: under setting [7], 19.2* s; under setting [8], 15.3* s; under setting [9], 16.0* s; under setting [10], 16.9* s; under setting [11], 15.9* s; under setting [12], 15.3* s.
For `Nc1cccc2c(=O)[nH][nH]c(=O)c12.[Na]` [Compound 15, sodium salt of 5-amino-benzo[d]-3H-pyridazine-1,4-dione], the “thrombin time, T2” value is, setting by setting: under setting [1], 17.0* s; under setting [2], 18.5* s; under setting [3], 16.5* s; under setting [4], 15.5* s; under setting [5], 19.7* s; under setting [6], 20.5* s. In addition, the “thrombin time, T2” value runs as follows: under setting [7], 21.3* s; under setting [8], 15.0* s; under setting [9], 16.8* s; under setting [10], 18.0* s; under setting [11], 16.5* s; under setting [12], 14.7* s.
For `Nc1cnc2c(=O)n([C@@H]3O[C@H](CO)[C@@H](O)[C@H]3O)[nH]c(=O)c2n1.[Na]` [Compound 21, sodium salt of 3-amino-7-(β-D-ribofuranosile)pyrazine[2,3-d]-6H-pyridazine-5,8-dione], the “thrombin time, T2” value is 16.4* s under setting [1]; 17.7* s under setting [2]; 16.1* s under setting [3]; 15.7* s under setting [4]; 17.9* s under setting [5]; 18.8* s under setting [6]. The “thrombin time, T2” value under setting [7] is given as 19.0* s; the “thrombin time, T2” value under setting [8] is listed as 15.6* s; the “thrombin time, T2” value under setting [9] is 16.2* s; the “thrombin time, T2” value under setting [10] is 17.7* s; the “thrombin time, T2” value under setting [11] is reported as 16.3* s; the “thrombin time, T2” value under setting [12] is given as 15.7* s.
Consider `O=c1[nH][nH]c(=O)c2c(Br)ncnc12.[K]` [Compound 37, potassium salt of 4-bromine-pyrimido[4,5-D]-6H-pyridazine-5,8-dione], for which the “thrombin time, T2” value under setting [1] is reported as 16.9* s; the “thrombin time, T2” value under setting [2] was 18.2* s; the “thrombin time, T2” value under setting [3] is listed as 16.3* s; the “thrombin time, T2” value under setting [4] is given as 15.6* s; the “thrombin time, T2” value under setting [5] is listed as 19.5* s; the “thrombin time, T2” value under setting [6] is listed as 20.3* s. Moreover, the “thrombin time, T2” value is, setting by setting: under setting [7], 21.0* s; under setting [8], 15.2* s; under setting [9], 16.6* s; under setting [10], 17.8* s; under setting [11], 16.2* s; under setting [12], 15.0* s.
